Laboratory results published in ChEMBL document CHEMBL4507279, “Data for DCP probe BI-9627” (2021).

Experiments:
[1] = biological target: Serine/threonine-protein kinase PAK 4 (Homo sapiens) (UniProt O96013); conditions: Compound concentration 1000.0 nM
[2] = biological target: Serine/threonine-protein kinase PAK 3 (Homo sapiens) (UniProt O75914); conditions: Compound concentration 1000.0 nM
[3] = biological target: Tyrosine-protein kinase JAK1 (Homo sapiens) (UniProt P23458); conditions: Compound concentration 1000.0 nM
[4] = biological target: Protein kinase C theta type (Homo sapiens) (UniProt Q04759); conditions: Compound concentration 1000.0 nM
[5] = biological target: cAMP-dependent protein kinase catalytic subunit beta (Homo sapiens) (UniProt P22694); conditions: Compound concentration 1000.0 nM
[6] = biological target: Ephrin type-A receptor 1 (Homo sapiens) (UniProt P21709); conditions: Compound concentration 1000.0 nM
[7] = biological target: D(1B) dopamine receptor (Homo sapiens) (UniProt P21918); conditions: Compound concentration 10.0 uM
D(1B) dopamine receptor (Homo sapiens), sequence (P21918 whole entry): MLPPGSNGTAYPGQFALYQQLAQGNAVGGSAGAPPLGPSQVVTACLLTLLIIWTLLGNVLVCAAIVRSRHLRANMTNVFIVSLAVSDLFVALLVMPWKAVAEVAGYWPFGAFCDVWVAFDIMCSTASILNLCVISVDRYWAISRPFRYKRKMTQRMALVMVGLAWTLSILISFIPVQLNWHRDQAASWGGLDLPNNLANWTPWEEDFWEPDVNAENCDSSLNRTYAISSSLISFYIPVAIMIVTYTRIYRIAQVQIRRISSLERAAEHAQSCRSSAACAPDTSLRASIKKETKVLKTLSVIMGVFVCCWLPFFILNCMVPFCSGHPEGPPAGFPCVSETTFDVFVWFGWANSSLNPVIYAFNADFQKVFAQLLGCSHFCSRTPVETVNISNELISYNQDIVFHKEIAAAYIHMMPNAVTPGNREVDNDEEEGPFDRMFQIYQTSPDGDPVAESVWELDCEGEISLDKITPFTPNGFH

[8] = biological target: Tyrosine-protein kinase BTK (Homo sapiens) (UniProt Q06187); conditions: Compound concentration 1000.0 nM
[9] = biological target: Dual specificity tyrosine-phosphorylation-regulated kinase 1B (Homo sapiens) (UniProt Q9Y463); conditions: Compound concentration 1000.0 nM
Dual specificity tyrosine-phosphorylation-regulated kinase 1B (Homo sapiens), sequence (Q9Y463 whole entry, looked up): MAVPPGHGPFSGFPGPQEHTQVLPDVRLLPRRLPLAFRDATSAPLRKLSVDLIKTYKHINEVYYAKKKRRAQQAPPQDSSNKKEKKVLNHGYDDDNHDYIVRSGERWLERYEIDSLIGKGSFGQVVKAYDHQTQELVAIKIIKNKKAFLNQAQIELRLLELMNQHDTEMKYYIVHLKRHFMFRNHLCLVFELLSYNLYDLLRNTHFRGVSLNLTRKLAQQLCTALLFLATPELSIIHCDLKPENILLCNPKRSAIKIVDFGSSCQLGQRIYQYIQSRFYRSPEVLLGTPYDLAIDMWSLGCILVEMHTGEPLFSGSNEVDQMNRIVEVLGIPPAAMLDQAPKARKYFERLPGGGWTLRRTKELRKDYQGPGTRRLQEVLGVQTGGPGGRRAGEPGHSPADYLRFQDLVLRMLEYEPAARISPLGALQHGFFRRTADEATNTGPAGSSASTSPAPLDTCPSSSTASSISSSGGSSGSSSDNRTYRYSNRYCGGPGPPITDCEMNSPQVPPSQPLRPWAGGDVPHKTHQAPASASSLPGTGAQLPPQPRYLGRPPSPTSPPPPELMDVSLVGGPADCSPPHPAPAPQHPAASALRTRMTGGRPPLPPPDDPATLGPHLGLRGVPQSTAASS

[10] = biological target: Muscarinic acetylcholine receptor M4 (Homo sapiens) (UniProt P08173); conditions: Compound concentration 10.0 uM
[11] = biological target: Fibroblast growth factor receptor 3 (Homo sapiens) (UniProt P22607); conditions: Compound concentration 1000.0 nM
Fibroblast growth factor receptor 3 (Homo sapiens), sequence (P22607 23-806 limits assumed): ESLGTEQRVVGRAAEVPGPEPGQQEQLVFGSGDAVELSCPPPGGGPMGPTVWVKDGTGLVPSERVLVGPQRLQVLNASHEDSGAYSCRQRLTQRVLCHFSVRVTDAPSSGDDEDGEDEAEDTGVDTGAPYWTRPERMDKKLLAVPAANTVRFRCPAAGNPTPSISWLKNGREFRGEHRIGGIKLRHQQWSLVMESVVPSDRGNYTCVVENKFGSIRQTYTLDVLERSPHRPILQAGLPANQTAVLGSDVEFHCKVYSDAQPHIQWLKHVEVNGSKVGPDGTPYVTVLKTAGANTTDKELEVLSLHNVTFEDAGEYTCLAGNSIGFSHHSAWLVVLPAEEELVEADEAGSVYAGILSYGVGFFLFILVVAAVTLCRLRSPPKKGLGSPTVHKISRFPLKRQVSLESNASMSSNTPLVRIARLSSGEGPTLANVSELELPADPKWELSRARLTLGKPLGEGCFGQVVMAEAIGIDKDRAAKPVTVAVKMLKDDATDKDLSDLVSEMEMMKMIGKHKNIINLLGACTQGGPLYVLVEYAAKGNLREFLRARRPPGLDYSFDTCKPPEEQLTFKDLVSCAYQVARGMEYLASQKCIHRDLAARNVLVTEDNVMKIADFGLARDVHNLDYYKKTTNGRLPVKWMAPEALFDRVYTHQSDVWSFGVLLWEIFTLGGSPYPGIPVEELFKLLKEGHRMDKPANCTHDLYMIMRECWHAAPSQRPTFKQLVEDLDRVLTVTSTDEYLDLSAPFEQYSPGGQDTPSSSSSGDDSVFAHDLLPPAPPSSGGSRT

[12] = biological target: Protein kinase C delta type (Homo sapiens) (UniProt Q05655); conditions: Compound concentration 1000.0 nM
[13] = biological target: Mitogen-activated protein kinase kinase kinase 1 (Homo sapiens) (UniProt Q13233); conditions: Compound concentration 1000.0 nM
[14] = biological target: Mast/stem cell growth factor receptor Kit (Homo sapiens) (UniProt P10721); conditions: Compound concentration 1000.0 nM
[15] = biological target: Mitogen-activated protein kinase kinase kinase 9 (Homo sapiens) (UniProt P80192); conditions: Compound concentration 1000.0 nM
[16] = biological target: Sodium/hydrogen exchanger 3 (Homo sapiens, UniProt P48764); test: pHi change assay with SLC9A3
[17] = biological target: Mitogen-activated protein kinase 14 (Homo sapiens) (UniProt Q16539); conditions: Compound concentration 1000.0 nM
Mitogen-activated protein kinase 14 (Homo sapiens), sequence (Q16539 whole entry): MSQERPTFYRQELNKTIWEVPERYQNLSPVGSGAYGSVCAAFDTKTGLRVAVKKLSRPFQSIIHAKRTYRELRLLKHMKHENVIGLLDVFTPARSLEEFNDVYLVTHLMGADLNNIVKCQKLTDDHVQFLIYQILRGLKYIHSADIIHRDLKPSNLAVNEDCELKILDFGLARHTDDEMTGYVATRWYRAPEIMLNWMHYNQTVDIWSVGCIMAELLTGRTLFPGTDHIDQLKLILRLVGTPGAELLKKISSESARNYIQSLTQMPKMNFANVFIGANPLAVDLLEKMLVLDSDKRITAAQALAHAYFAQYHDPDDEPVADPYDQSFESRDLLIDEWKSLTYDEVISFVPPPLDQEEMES

[18] = biological target: Mitogen-activated protein kinase 1 (Homo sapiens) (UniProt P28482); conditions: Compound concentration 1000.0 nM
Mitogen-activated protein kinase 1 (Homo sapiens), sequence (P28482 whole entry): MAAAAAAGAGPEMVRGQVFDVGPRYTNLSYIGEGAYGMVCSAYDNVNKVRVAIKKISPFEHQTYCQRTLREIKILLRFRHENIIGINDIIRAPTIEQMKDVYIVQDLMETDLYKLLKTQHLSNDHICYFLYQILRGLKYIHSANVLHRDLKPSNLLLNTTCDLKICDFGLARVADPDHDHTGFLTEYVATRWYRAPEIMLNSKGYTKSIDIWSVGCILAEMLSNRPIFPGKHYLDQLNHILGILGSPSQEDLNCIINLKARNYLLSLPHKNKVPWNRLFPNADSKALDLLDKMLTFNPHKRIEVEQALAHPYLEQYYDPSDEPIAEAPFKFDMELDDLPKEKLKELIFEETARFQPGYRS

[19] = biological target: Sodium-dependent dopamine transporter (Homo sapiens, UniProt Q01959); test: GPCRScan assay: inhibition of DAT; design: radioligand conc. used [nm] 3.6 – 16.0, parental cells stable HEK
Sodium-dependent dopamine transporter, sequence (Q01959 whole entry): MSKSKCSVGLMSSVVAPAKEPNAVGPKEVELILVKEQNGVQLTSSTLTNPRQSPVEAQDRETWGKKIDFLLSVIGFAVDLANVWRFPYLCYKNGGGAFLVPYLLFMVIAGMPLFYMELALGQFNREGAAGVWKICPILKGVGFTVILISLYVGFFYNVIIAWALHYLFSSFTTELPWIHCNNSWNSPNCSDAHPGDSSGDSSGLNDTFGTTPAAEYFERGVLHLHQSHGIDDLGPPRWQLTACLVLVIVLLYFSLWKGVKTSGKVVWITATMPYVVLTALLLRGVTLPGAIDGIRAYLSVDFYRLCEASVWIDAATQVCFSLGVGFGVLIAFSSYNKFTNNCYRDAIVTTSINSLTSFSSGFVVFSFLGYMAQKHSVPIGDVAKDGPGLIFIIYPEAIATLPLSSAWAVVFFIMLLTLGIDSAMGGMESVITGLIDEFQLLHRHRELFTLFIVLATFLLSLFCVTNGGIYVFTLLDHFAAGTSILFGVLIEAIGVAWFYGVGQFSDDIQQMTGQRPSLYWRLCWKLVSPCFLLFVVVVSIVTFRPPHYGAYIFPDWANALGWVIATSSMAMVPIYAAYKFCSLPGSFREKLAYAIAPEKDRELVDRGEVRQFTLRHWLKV

[20] = biological target: T1, Alpha-1D adrenergic receptor (Homo sapiens) (UniProt P25100); conditions: Compound concentration 10.0 uM
T1 sequence (whole entry): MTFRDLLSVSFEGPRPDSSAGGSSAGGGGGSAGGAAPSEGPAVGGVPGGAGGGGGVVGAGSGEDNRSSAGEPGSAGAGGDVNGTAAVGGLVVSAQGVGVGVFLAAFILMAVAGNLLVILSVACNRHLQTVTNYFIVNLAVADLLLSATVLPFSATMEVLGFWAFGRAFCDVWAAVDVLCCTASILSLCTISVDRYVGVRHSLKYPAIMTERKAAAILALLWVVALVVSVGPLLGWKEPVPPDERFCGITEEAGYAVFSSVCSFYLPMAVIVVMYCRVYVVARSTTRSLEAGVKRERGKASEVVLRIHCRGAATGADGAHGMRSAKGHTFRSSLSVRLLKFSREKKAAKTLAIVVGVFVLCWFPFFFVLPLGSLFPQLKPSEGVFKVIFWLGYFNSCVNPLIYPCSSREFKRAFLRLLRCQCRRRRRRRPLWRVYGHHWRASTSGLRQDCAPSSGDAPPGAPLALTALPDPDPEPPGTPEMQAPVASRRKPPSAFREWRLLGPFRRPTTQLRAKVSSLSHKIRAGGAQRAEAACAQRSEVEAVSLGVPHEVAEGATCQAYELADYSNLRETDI

[21] = biological target: Cyclin-dependent kinase 16 (Homo sapiens) (UniProt Q00536); conditions: Compound concentration 1000.0 nM
[22] = biological target: Fibroblast growth factor receptor 4 (Homo sapiens) (UniProt P22455); conditions: Compound concentration 1000.0 nM
[23] = biological target: Dual specificity tyrosine-phosphorylation-regulated kinase 2 (Homo sapiens) (UniProt Q92630); conditions: Compound concentration 1000.0 nM
Dual specificity tyrosine-phosphorylation-regulated kinase 2 (Homo sapiens), sequence (Q92630 whole entry): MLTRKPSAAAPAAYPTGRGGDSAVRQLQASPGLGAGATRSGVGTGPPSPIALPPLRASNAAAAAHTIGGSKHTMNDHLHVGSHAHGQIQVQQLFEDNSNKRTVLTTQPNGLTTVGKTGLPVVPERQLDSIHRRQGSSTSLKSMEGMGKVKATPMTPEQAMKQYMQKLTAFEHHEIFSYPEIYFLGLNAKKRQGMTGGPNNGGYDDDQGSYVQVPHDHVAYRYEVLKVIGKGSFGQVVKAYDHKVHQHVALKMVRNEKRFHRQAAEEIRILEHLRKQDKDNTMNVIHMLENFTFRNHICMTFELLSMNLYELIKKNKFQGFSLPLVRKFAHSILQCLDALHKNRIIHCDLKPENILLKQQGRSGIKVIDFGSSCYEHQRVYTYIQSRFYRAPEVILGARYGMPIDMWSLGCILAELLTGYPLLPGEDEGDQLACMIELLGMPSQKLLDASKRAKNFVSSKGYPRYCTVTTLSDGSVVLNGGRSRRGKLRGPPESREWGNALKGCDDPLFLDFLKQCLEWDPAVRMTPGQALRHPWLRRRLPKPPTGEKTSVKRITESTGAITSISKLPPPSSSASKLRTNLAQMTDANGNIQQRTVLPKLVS

[24] = biological target: Homeodomain-interacting protein kinase 1 (Homo sapiens) (UniProt Q86Z02); conditions: Compound concentration 1000.0 nM
Homeodomain-interacting protein kinase 1 (Homo sapiens), sequence (Q86Z02 whole entry, looked up): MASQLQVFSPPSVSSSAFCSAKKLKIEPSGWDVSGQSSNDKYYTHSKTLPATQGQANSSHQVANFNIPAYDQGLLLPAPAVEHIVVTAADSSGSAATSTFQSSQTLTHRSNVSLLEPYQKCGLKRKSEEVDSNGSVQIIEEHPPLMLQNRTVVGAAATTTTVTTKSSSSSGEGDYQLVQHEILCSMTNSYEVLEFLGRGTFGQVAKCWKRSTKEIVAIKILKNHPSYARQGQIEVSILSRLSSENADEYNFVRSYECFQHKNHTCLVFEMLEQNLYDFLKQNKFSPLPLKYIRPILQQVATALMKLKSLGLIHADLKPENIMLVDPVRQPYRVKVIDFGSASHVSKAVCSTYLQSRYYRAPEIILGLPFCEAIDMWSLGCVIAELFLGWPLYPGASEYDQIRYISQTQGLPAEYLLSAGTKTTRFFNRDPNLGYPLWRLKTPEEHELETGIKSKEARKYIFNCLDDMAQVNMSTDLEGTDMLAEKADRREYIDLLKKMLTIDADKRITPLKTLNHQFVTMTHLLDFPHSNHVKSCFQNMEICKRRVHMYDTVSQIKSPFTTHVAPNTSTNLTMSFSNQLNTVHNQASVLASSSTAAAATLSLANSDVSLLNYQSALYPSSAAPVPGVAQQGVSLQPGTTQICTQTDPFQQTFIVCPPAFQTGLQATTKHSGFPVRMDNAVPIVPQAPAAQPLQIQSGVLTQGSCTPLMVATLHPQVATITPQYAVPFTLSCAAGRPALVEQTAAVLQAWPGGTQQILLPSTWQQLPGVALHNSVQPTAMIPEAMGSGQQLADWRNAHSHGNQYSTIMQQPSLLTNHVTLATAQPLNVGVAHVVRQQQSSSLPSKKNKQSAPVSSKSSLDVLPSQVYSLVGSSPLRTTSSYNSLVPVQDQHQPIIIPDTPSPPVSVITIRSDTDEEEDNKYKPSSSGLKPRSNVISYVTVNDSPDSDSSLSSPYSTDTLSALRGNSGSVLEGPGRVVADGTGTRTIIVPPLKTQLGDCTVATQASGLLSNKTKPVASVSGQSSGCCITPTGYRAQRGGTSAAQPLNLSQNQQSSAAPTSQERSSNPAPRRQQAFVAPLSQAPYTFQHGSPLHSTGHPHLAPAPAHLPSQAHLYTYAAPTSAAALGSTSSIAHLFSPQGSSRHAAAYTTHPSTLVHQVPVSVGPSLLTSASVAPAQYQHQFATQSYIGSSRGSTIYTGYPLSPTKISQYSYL

[25] = biological target: Calcium/calmodulin-dependent protein kinase type II subunit alpha (Homo sapiens) (UniProt Q9UQM7); conditions: Compound concentration 1000.0 nM
[26] = biological target: GABA-A receptor; anion channel (Rattus norvegicus) (UniProt O09028+P15431+P18506+P18508+P19969+P20236+P23574+P23576+P28471+P28473+P30191+P62813+P63079+P63138+Q91ZM7+Q9ES14); conditions: Compound concentration 10.0 uM
[27] = biological target: Calcium/calmodulin-dependent protein kinase type 1B (Homo sapiens) (UniProt Q6P2M8); conditions: Compound concentration 1000.0 nM
[28] = biological target: Tyrosine-protein kinase ABL2 (Homo sapiens) (UniProt P42684); conditions: Compound concentration 1000.0 nM
[29] = biological target: RAC-alpha serine/threonine-protein kinase (Homo sapiens) (UniProt P31749); conditions: Compound concentration 1000.0 nM
[30] = biological target: Mitogen-activated protein kinase kinase kinase 14 (Homo sapiens) (UniProt Q99558); conditions: Compound concentration 1000.0 nM
[31] = tested on: Mast/stem cell growth factor receptor Kit (Homo sapiens), P10721 [L576P]; conditions: Compound concentration 1000.0 nM
[32] = biological target: 5-hydroxytryptamine receptor 7 (Homo sapiens) (UniProt P34969); conditions: Compound concentration 10.0 uM
[33] = biological target: Wee1-like protein kinase (Homo sapiens) (UniProt P30291); conditions: Compound concentration 1000.0 nM
[34] = biological target: Serine/threonine-protein kinase PRP4 homolog (Homo sapiens) (UniProt Q13523); conditions: Compound concentration 1000.0 nM
[35] = biological target: Ephrin type-B receptor 4 (Homo sapiens) (UniProt P54760); conditions: Compound concentration 1000.0 nM
[36] = biological target: NT-3 growth factor receptor (Homo sapiens) (UniProt Q16288); conditions: Compound concentration 1000.0 nM

Question: Which residual activity [1] does the source give for `CC(=O)N1CCC(c2ccc(C(=O)NC3=NCCN3)cc2C(F)(F)F)CC1` [BI 0054] here?
Answer: 100%

Question: What about the residual activity [2] of the same molecule?
Answer: 100%

Question: What about the residual activity [3] of the same molecule?
Answer: 100%

Question: What about the residual activity [4] of the same molecule?
Answer: 93%

Question: What about the residual activity [5] of the same molecule?
Answer: 100%

Question: And the residual activity [6]?
Answer: 88%

Question: And the inhibition [7]?
Answer: -9.82%

Question: What about the residual activity [8] of the same molecule?
Answer: 97%

Question: What about the residual activity [9] of the same molecule?
Answer: 37%

Question: And the inhibition [10]?
Answer: 19.9%

Question: What about the residual activity [11] of the same molecule?
Answer: 100%

Question: What about the residual activity [12] of the same molecule?
Answer: 100%

Question: What about the residual activity [13] of the same molecule?
Answer: 86%

Question: What about the residual activity [14] of the same molecule?
Answer: 100%

Question: And the residual activity [15]?
Answer: 100%

Question: What about the IC50 [16] of the same molecule?
Answer: > 10 µM (not active)

Question: And the residual activity [17]?
Answer: 100%

Question: What about the residual activity [18] of the same molecule?
Answer: 100%

Question: And the Ki ([19]; read-out: Ki)?
Answer: 825 nM

Question: And the Ki ([19]; read-out: pKi (converted))?
Answer: 794 nM

Question: And the inhibition [20]?
Answer: 50%

Question: And the residual activity [21]?
Answer: 84%

Question: And the residual activity [22]?
Answer: 88%

Question: And the residual activity [23]?
Answer: 93%

Question: What about the residual activity [24] of the same molecule?
Answer: 91%

Question: And the residual activity [25]?
Answer: 94%

Question: And the inhibition [26]?
Answer: 17%

Question: And the residual activity [27]?
Answer: 88%

Question: And the residual activity [28]?
Answer: 100%

Question: And the residual activity [29]?
Answer: 100%

Question: And the residual activity [30]?
Answer: 95%

Question: What about the residual activity [31] of the same molecule?
Answer: 95%

Question: What about the inhibition [32] of the same molecule?
Answer: 3.32%

Question: And the residual activity [33]?
Answer: 100%

Question: And the residual activity [34]?
Answer: 100%

Question: What about the residual activity [35] of the same molecule?
Answer: 100%

Question: And the residual activity [36]?
Answer: 100%

Question: What does the source list for `CC(=O)N1CCC(c2ccc(C(=O)NC(=N)N)cc2C(F)(F)F)CC1` [BI 9627]?
Answer: residual activity [1]: 100%; residual activity [2]: 84%; residual activity [3]: 100%; residual activity [4]: 91%; residual activity [5]: 100%; residual activity [6]: 100%; inhibition [7]: -8.21%; residual activity [8]: 100%; residual activity [9]: 45%; inhibition [10]: 22.3%; residual activity [11]: 100%; residual activity [12]: 100%; residual activity [13]: 96%; residual activity [14]: 95%; residual activity [15]: 100%; IC50 [16]: > 16 µM (not active); residual activity [17]: 100%; residual activity [18]: 96%; Ki ([19]; read-out: Ki): 1520 nM; Ki ([19]; read-out: pKi (converted)): 1580 nM; inhibition [20]: 50%; residual activity [21]: 91%; residual activity [22]: 100%; residual activity [23]: 89%; residual activity [24]: 81%; residual activity [25]: 100%; inhibition [26]: 14.6%; residual activity [27]: 100%; residual activity [28]: 100%; residual activity [29]: 100%; residual activity [30]: 100%; residual activity [31]: 92%; inhibition [32]: 16.3%; residual activity [33]: 100%; residual activity [34]: 78%; residual activity [35]: 100%; residual activity [36]: 100%
